Laboratory results taken from US4272437A, “Antibacterial agents, and 4-thio azetidinone intermediates” (priority 1979, dated 1981).
≈ marks a conversion by molar mass, not a printed value.

Columns and labels:
β-lactamases = conditions: literature; cited from earlier work
[1] = system: Gram-negative and Gram-positive organisms; conditions: literature; cited from earlier work
[2] = system: Staph. aureus (Pen-Res) A-9606; test: MIC, tube dilution, Staphylococcus aureus A9606 (Pen-Res); format: cell-based; conditions: Staphylococcus aureus, Staph. aureus A9606 (Pen-Res); overnight 37° C.; read-out: Minimum Inhibitory Concentration (M.I.C.)
Text: (§1) Representative compounds of the present invention were subjected to in vitro antibiotic screening against a variety of microorganisms.

E. coli A15119 = test: In vivo protection of mice, lethal infection with E. coli A15119; conditions: Escherichia coli, IM, 2 treatments, 7.8 × 10^5 organisms, read-out: PD50
Procedure: (§2) Representative compounds of the present invention were also tested in vivo in mice and their PD50 (dose of compound in mg/kg required to protect 50% of the treated mice against an otherwise lethal infection of a micro-organism) values determined with respect to the test organisms shown below.

Proteus rettgeri A21203 = test: MIC, tube dilution, Proteus rettgeri A21203; format: cell-based; conditions: overnight 37° C.
Text: as §1

[3] = system: Klebsiella species A20468; test: MIC, tube dilution, Klebsiella species A20468; format: cell-based; conditions: Klebsiella species (K. pneumoniae) A20468; overnight 37° C.; read-out: Minimum Inhibitory Concentration (M.I.C.)
Text: as §1

Staph. aureus A-9537 = test: MIC, tube dilution, Staphylococcus aureus A9537; format: cell-based; conditions: overnight 37° C., Nutrient Broth
Text: as §1

[4] = system: Staph. aureus (Meth-Res) A-15097; test: MIC, tube dilution, Staphylococcus aureus A15097 (Meth-Res); format: cell-based; conditions: Staphylococcus aureus, Staph. aureus A15097 (Meth-Res); overnight 37° C.; read-out: Minimum Inhibitory Concentration (M.I.C.)
Text: as §1

Ent. cloacae A-9656 = test: MIC, tube dilution, Enterobacter cloacae A9656; format: cell-based; conditions: overnight 37° C.
Text: as §1

Ps. aeruginosa A-21213 = test: MIC, tube dilution, Pseudomonas aeruginosa A21213; format: cell-based; conditions: Pseudomonas aeruginosa, A21213, Pseudomonas aeruginosa A21213; overnight 37° C.; read-out: Minimum Inhibitory Concentration (M.I.C.)
Text: as §1

Str. faecalis A-20688 = test: MIC, tube dilution, Streptococcus faecalis A20688; format: cell-based; conditions: overnight 37° C.
Text: as §1

Str. pneumoniae A-9585 = test: MIC, tube dilution, Streptococcus pneumoniae A9585; format: cell-based; conditions: overnight 37° C., Nutrient Broth
Text: as §1

Proteus vulgaris A21559 = test: MIC, tube dilution, Proteus vulgaris A21559; format: cell-based; conditions: Proteus vulgaris A21559; overnight 37° C.
Text: as §1

[5] = system: Staph. aureus A-9537 and 50% serum; test: MIC, tube dilution, Staph. aureus A9537 + 50% serum; format: cell-based, Staphylococcus aureus; conditions: overnight 37° C.
Text: as §1

E. coli A-15119 = test: MIC, tube dilution, Escherichia coli A15119; format: cell-based; conditions: Escherichia coli, A15119, E. coli A15119; overnight 37° C.; read-out: Minimum Inhibitory Concentration (M.I.C.)
Text: as §1

K. pneumoniae A-15130 = test: MIC, tube dilution, Klebsiella pneumoniae A15130; format: cell-based; conditions: Klebsiella pneumoniae, A15130, K. pneumoniae A15130; overnight 37° C.; read-out: Minimum Inhibitory Concentration (M.I.C.)
Text: as §1

Ps. aeruginosa A-9843A = test: MIC, tube dilution, Pseudomonas aeruginosa A9843A; format: cell-based; conditions: Pseudomonas aeruginosa, A9843A, read-out: Minimum Inhibitory Concentration (M.I.C.), Pseudomonas aeruginosa A9843A; overnight 37° C.
Text: as §1

Pr. mirabilis A-9900 = test: MIC, tube dilution, Proteus mirabilis A9900; format: cell-based; conditions: overnight 37° C.
Text: as §1

Str. pyogenes A-9604 = test: MIC, tube dilution, Streptococcus pyogenes A9604; format: cell-based; conditions: overnight 37° C., Nutrient Broth
Text: as §1

Ser. marcescens A-20019 = test: MIC, tube dilution, Serratia marcescens A20019; format: cell-based; conditions: overnight 37° C.
Text: as §1

E. coli A-20341-1 = test: MIC, tube dilution, Escherichia coli A20341-1; format: cell-based; conditions: Escherichia coli, A203411, E. coli A20341-1; overnight 37° C.; read-out: Minimum Inhibitory Concentration (M.I.C.)
Text: as §1

S. aureus A9537 = test: In vivo protection of mice, lethal infection with S. aureus A9537; conditions: IM, 2 treatments, 9.1 × 10^5 organisms; listed as Ex. 98 (isomer A)
Procedure: as §2

Pr. morganii A-15153 = test: MIC, tube dilution, Proteus morganii A15153; format: cell-based; conditions: overnight 37° C.
Text: as §1

Ent. cloacae A-9659 = test: MIC, tube dilution, Enterobacter cloacae A9659; format: cell-based; conditions: overnight 37° C.
Text: as §1

[6] = system: Hemophilus influenzae A9833; test: MIC, tube dilution, Hemophilus influenzae A9833; format: cell-based; conditions: Haemophilus influenzae; Hemophilus influenzae A9833; overnight 37° C.; read-out: Minimum Inhibitory Concentration (M.I.C.)
Text: as §1

O=C(O)C1=CSC2CC(=O)N12 (centres unmarked) [drawing 10]
β-lactamase inhibition (β-lactamases): no β-lactamase inhibitory activity

C[C@@H](O)[C@H]1C(=O)N2C(C(=O)O)=C(SCCN)C[C@H]12 [thienamycin]
antibacterial activity [1]: highly potent broad-spectrum antibiotic

NC1CCC(C2=C(C(=O)O)N3C(=O)C[C@H]3S2)C1 (single isomer, unassigned) [98 isomer A, 2-(3-Aminocyclopentyl)-penem-3-carboxylic acid]
MIC [2]: 32 µg/mL (≈ 126 µM)
ED50 (E. coli A15119): 17.4 mg/kg
Minimum Inhibitory Concentration (M.I.C.) (Proteus rettgeri A21203; Proteus rettgeri A21203): 1 µg/mL
MIC [3]: > 63 µg/mL
Minimum Inhibitory Concentration (M.I.C.) (Staph. aureus A-9537; Staph. aureus A9537): .03 µg/mL
MIC [4]: > 63 µg/mL
Minimum Inhibitory Concentration (M.I.C.) (Ent. cloacae A-9656; Enterobacter cloacae A9656): 2 µg/mL
MIC (Ps. aeruginosa A-21213): > 63 µg/mL
Minimum Inhibitory Concentration (M.I.C.) (Str. faecalis A-20688; Str. faecalis A20688): 4 µg/mL
Minimum Inhibitory Concentration (M.I.C.) (Str. pneumoniae A-9585; Str. pneumoniae A9585): .004 µg/mL
Minimum Inhibitory Concentration (M.I.C.) (Proteus vulgaris A21559): 2 µg/mL
Minimum Inhibitory Concentration (M.I.C.) [5]: .13 µg/mL
MIC (E. coli A-15119): 1 µg/mL (≈ 3.93 µM)
MIC (K. pneumoniae A-15130): 4 µg/mL (≈ 15.7 µM)
MIC (Ps. aeruginosa A-9843A): > 63 µg/mL
Minimum Inhibitory Concentration (M.I.C.) (Pr. mirabilis A-9900; Proteus mirabilis A9900): 1 µg/mL
Minimum Inhibitory Concentration (M.I.C.) (Str. pyogenes A-9604; Str. pyogenes A9604): .004 µg/mL
Minimum Inhibitory Concentration (M.I.C.) (Ser. marcescens A-20019; Serratia marcescens A20019): 2 µg/mL
MIC (E. coli A-20341-1): 16 µg/mL (≈ 62.9 µM)
PD50 (S. aureus A9537): 0.04 mg/kg/treatment
Minimum Inhibitory Concentration (M.I.C.) (Pr. morganii A-15153; Proteus morganii A15153): 4 µg/mL
Minimum Inhibitory Concentration (M.I.C.) (Ent. cloacae A-9659; Enterobacter cloacae A9659): 4 µg/mL

CC(=O)NCCC1=C(C(=O)O)N2C(=O)CC2S1 (centres unmarked) [Example 25, Sodium 2-(2'-Acetamido-1'-ethyl)penem-3-carboxylate]
MIC [2]: 1 µg/mL
MIC (Proteus rettgeri A21203; Providencia rettgeri, A21203, Proteus rettgeri A21203, read-out: Minimum Inhibitory Concentration (M.I.C.)): 8 µg/mL
MIC [3]: > 125 µg/mL
MIC (Staph. aureus A-9537; Staphylococcus aureus, A9537, Staph. aureus A9537, read-out: Minimum Inhibitory Concentration (M.I.C.)): 0.5 µg/mL
MIC [4]: 125 µg/mL
MIC (Ent. cloacae A-9656; Enterobacter cloacae, A9656, Enterobacter cloacae A9656, read-out: Minimum Inhibitory Concentration (M.I.C.)): 8 µg/mL
MIC (Ps. aeruginosa A-21213): > 125 µg/mL
MIC (Str. faecalis A-20688; Enterococcus faecalis, A20688, Str. faecalis A20688, read-out: Minimum Inhibitory Concentration (M.I.C.)): 63 µg/mL
MIC (Str. pneumoniae A-9585; Streptococcus pneumoniae, A9585, Str. pneumoniae A9585, read-out: Minimum Inhibitory Concentration (M.I.C.)): 0.25 µg/mL
MIC ([5]; Staphylococcus aureus, read-out: Minimum Inhibitory Concentration (M.I.C.)): 8 µg/mL
MIC (E. coli A-15119): 4 µg/mL
MIC (K. pneumoniae A-15130): 16 µg/mL
MIC (Ps. aeruginosa A-9843A): 16 µg/mL
MIC (Pr. mirabilis A-9900; Proteus mirabilis, A9900, Proteus mirabilis A9900, read-out: Minimum Inhibitory Concentration (M.I.C.)): 4 µg/mL
MIC (Str. pyogenes A-9604; Streptococcus pyogenes, A9604, Str. pyogenes A9604, read-out: Minimum Inhibitory Concentration (M.I.C.)): 0.25 µg/mL
MIC [6]: > 125 µg/mL
MIC (Ser. marcescens A-20019; Serratia marcescens, A20019, Serratia marcescens A20019, read-out: Minimum Inhibitory Concentration (M.I.C.)): 4 µg/mL
MIC (E. coli A-20341-1): 63 µg/mL
MIC (Pr. morganii A-15153; Morganella morganii, A15153, Proteus morganii A15153, read-out: Minimum Inhibitory Concentration (M.I.C.)): 4 µg/mL
MIC (Ent. cloacae A-9659; Enterobacter cloacae, A9659, Enterobacter cloacae A9659, read-out: Minimum Inhibitory Concentration (M.I.C.)): 4 µg/mL
